Test results reported in patent US20090118366A1, “ORGANIC COMPOUNDS” (Nabriva Therapeutics Forschungs GmbH, priority 2007, published 2009).

Tested on: cryopreserved primary human hepatocytes
Assay: Metabolic stability in cryopreserved primary human hepatocytes
Format: in vitro ADME
Conditions: 4 h incubation with human hepatocytes, compound concentration 5 μg/mL, 37° C., LC/MS
Method: The metabolic stability for compounds of the present invention was determined by using cryopreserved primary human hepatocytes. 1×10^6 cells/mL were incubated in the absence and the presence of 5 and 25 μg/mL of the test compounds at 37° C., 5% CO2 for 4 hours, To evaluate the in vitro degradation under assay conditions, a sample of each test compound was incubated also in the absence of hepatocytes. The incubation was stopped by freezing the reaction mixture. After ultrafiltration and washing of the filter with acetonitrile, the sample solution was analyzed for parent compound disappearance or metabolite appearance using LC/MS (ion trap). The metabolic stability value corresponds to the detected parent compound in % after incubation.

Row | Substance | parent compounds found (metabolic stability value)
1 | 14-O-{[(1R, 2R, 5S)-5-Amino-2-hydroxy-cyclohexylsulfanyl]-acetyl}-mutilin hydrochloride+(1s, 2S, 5R) diastereomer hydrochloride [Example 2] | 66%
2 | 14-O-{[(1R, 3S)-3-Amino-cyclohexylsulfanyl]-acetyl}-mutilin hydrochloride and the (1S, S3R) diastereomer hydrochloride thereof | 24%
